In this experiment the test system is carrageenin edema. The experiment is described as follows: Carrageenin edema inhibition activity (for rats). In kind it is in vivo. The following applies: Rattus norvegicus, ip; for inhibition in vivo at 50 mg/kg: 50 mg/kg i.p.; for inhibition in vivo at 100 mg/kg: 100 mg/kg i.p. The text has this: In Table 2 below, carrageenin edema inhibition activity (for rats) of representative compounds of the present invention is illustrated: […]
(In general: The carrageenan paw model is a standard test of acute inflammation.)

This note sets out measurements from patent US4333933A, “Benzoguanamine derivatives, their production and pharmaceutical compositions containing the same” (Nippon Shinyaku Co., Ltd., priority 1980, dated 1982).

As usually defined, the inhibition in vivo is the change of the read-out against control, counted positive when it falls. Lower therefore signals a response near the control.

In turn, `Nc1nc(NC(=O)c2cccnc2)nc(-c2ccc(Br)cc2)n1` [Compound 4] displayed an inhibition in vivo at 50 mg/kg of 44.4% and an inhibition in vivo at 100 mg/kg of 49.3%.
For `Nc1nc(NC(=O)c2cccnc2)nc(-c2cc(F)ccc2F)n1` [Compound 27], in that order: 51.2% and 53.6%.
For `Nc1nc(NC(=O)c2cccnc2)nc(-c2cc(Br)ccc2Cl)n1` [Compound 29], in that order: 38.7% and 49.2%.
For `Nc1nc(NC(=O)c2cccnc2)nc(-c2ccc(Cl)cc2F)n1` [Compound 20], in that order: 42.7% and 50.8%.
For the compound `Nc1nc(NC(=O)c2cccnc2)nc(-c2ccc(Cl)cc2Br)n1` [Compound 28], at 50 mg/kg the inhibition in vivo was 42.8% and at 100 mg/kg the inhibition in vivo was 48.4%.
For `Nc1nc(NC(=O)c2cccnc2)nc(-c2cc(Cl)ccc2F)n1` [Compound 19], in that order: 34.2% and 47.8%.
For `Nc1nc(NC(=O)c2cccnc2)nc(-c2ccc(Cl)cc2)n1` [Compound 1], in that order: 56.8% and 57.2%.
For `Nc1nc(NC(=O)c2cccnc2)nc(-c2cccc(Cl)c2)n1` [Compound 2], in that order: 43.6% and 54.2%.
As for `Nc1nc(NC(=O)c2cccnc2)nc(-c2cc(Cl)ccc2Cl)n1` [Compound 15], at 50 mg/kg the inhibition in vivo was 43.2% and the inhibition in vivo at 100 mg/kg was found to be 54.5%.
For `Nc1nc(NC(=O)c2cccnc2)nc(-c2ccccc2I)n1` [Compound 9], in that order: 38.1% and 40.5%.
For `Nc1nc(NC(=O)c2cccnc2)nc(-c2cccc(Br)c2)n1` [Compound 5], in that order: 41.9% and 40.2%.
Compound `Nc1nc(NC(=O)c2cccnc2)nc(-c2ccc(Cl)c(Cl)c2)n1` [Compound 13] came in with an inhibition in vivo at 50 mg/kg of 40.9% and an inhibition in vivo at 100 mg/kg of 49.2%.
For the compound `Nc1nc(NC(=O)c2cccnc2)nc(-c2cc(F)ccc2Br)n1` [Compound 25], the inhibition in vivo at 50 mg/kg was found to be 40.7% and the inhibition in vivo at 100 mg/kg amounted to 45.9%.
For `Nc1nc(NC(=O)c2cccnc2)nc(-c2cc(Br)ccc2Br)n1` [Compound 21], in that order: 35.6% and 40.6%.
Regarding `Nc1nc(NC(=O)c2cccnc2)nc(-c2ccccc2Cl)n1` [Compound 3], the inhibition in vivo at 50 mg/kg was determined as 37.1% and 100 mg/kg produced 45.5% inhibition in vivo.
The compound `Nc1nc(NC(=O)c2cccnc2)nc(-c2ccc(F)cc2)n1` [Compound 10] yielded an inhibition in vivo at 50 mg/kg of 53.8% and an inhibition in vivo at 100 mg/kg of 56.1%.
In turn, `Nc1nc(NC(=O)c2cccnc2)nc(-c2cccc(F)c2)n1` [Compound 11] returned an inhibition in vivo at 50 mg/kg of 49% and an inhibition in vivo at 100 mg/kg of 47.1%.
For `Nc1nc(NC(=O)c2cccnc2)nc(-c2cc(F)ccc2Cl)n1` [Compound 24], in that order: 46.5% and 45.1%.
